Like-named read-outs stand apart in the source and are kept apart here.
Experiments:
G401 cells [1] = test: CellTiter-Glo cellular viability assay, dose-response curves (FIG. 5B)
Protocol: (§2) Cell viability was assayed using a modified manufacturer's protocol for CellTiter-Glo® (Promega #G7573). Cells were seeded at a density of 2000 cells per well in a 96 well black, clear bottom plate (Corning #89091-012) in 100 uL total media per well. The following day different concentrations of compounds at various doses were printed in triplicate in a random well format using the Tecan D300e Digital Dispenser. After 120H, 60 μL of a 1:3 solution of CellTiterGlo reagent in 1×PBS (Corning #01018002) was added per well and allowed to incubate at RT for 10 mins. Luminescence was measured with an integration time of 0.1 s using Envision Microplates Reader (PERKIN ELMER #2105-0010). Biological replicates were averaged and normalized to vehicle control. Dose curves were generated using Graphpad Prism.

[2] = system: biomarker-presenting cell lines; test: Cytotoxicity of disulfiram metabolites to biomarker-presenting cell lines; assay type: cell-based; conditions: compared with the cytotoxicity of disulfiram (DSF)
Text: (§1) Biological replicates were averaged and normalized to vehicle control. Dose curves were generated using Graphpad Prism.

SH10TC cells [3] = test: CellTiter-Glo cellular viability assay, dose-response curves (FIG. 5B)
Protocol: as §2

[4] = system: PRISM cancer cell lines stratified by chromosome 16q status; test: PRISM multiplexed cellular viability assay (drug repurposing library); assay type: cell-based, human; conditions: for cell killing profile: PRISM screen, compared with other compounds of the drug repurposing library
Protocol: Parental cell lines were obtained from the Cancer Cell Line Encyclopedia (CCLE) project (1). PRISM cell line barcoding, pooling, and screening was performed as previously described with several improvements to the original method (2). First, the lentiviral vector was modified to encode the unique barcode identifier at the end of the puromycin resistance gene. This enables barcodes to be detected using a variant of the mRNA capture and Luminex detection method developed for the L1000 gene expression assay (3). Second, a set of ten inert barcodes were spiked-in to each well of each plate after cell lysis to control for variation in PCR amplification as detailed below.
MFI values were log-transformed (log MFI) and used to perform basic quality control. To detect probable screening artifacts, log MFI values were centered to the median log MFI for each cell line on each plate in order to put the measurements from each cell line on the same scale. For each well on each plate, the median of these centered values was then standardized according to the global median and global MAD across all plate wells in the same position. Data from wells with a standardized score of greater than 5 or less than −5 were excluded from all further processing steps.
Cell viability was calculated as the ratio of nMFI to the median of the nMFI from the DMSO-treated negative controls for each cell line on each plate. Batch effects produced from variable detection and assay conditions were then removed using ComBat (4). The final viability values were calculated as the median of the batch-corrected cell viabilities from biological replicates for each cell line, compound and dose.
Measures of dose response were obtained by fitting 3-parameter logistic curves to viability values for each compound and cell line using the R package ‘dre’. Following the practice of Smirnov and Safikhani (5), viability was truncated at 1.0 and fit as a function of drug concentration according to: […]
[formula] The Area Under the dose response Curve (AUC) was calculated using the normalized integral: […]

SF295 cells = test: Viability of SF295 cells with or without CRISPR-Cas9 MTF1 knockout (FIG. 7); assay type: cell-based; conditions: MTF1 sg1 and MTF1 sg2 versus control guide GFP sg1
Text: XP003, XP023, psPAX, and pMD2.G vectors were acquired from the Broad Genetic Perturbation Platform (GPP). Oligos for sgRNAs designs were generated using Broad GPP sgRNA guide generator resource (broad institute.org/gpp/db/analysis-tools/sgrna-design) and the respective oligos were synthesized by Integrated DNA Technologies. In order to clone the sgRNAs into either the XPR003 guide only or XPRO23 all-in-one crispr lentiviral expression systems the protocol available on the Broad GPP website (broadinstitute.org/gpp/db/resources/protocols) was followed.
A mixture of 3E6 cells, virus, and media with 4 μg/mL polybrene (Millipore) at a total volume of 2 mL was plated per well of a 12 well plate. Cells were centrifuged at 2000 RPM for 2 hours at 30° C. After removal from incubator, 2 mL of fresh media was added to each well and cells were allowed to incubate at 37° C. overnight. The following day cells were selected for with puromycin for 3-10 days, or until the non-infected control cell were completely non-viable.
as §1

metastatic melanoma = conditions: cited from earlier work
SH10TC cells [5] = system: SH10TC cells
Protocol: as §2

G401 cells [6] = system: G401 cells
Protocol: as §2

[7] = cited from earlier work
[8] = in chloroform, acetone and ether; cited from earlier work
[9] = order paclitaxel, elesclomol, disulfiram/thiram, DDC

Row | Molecule | cytotoxic activity (dose-response) (G401 cells [1]) | biomarker-predicted cytotoxic activity [2] | cytotoxic activity (dose-response) (SH10TC cells [3]) | other results
1 | CCN(CC)C(=S)S [DDC, Diethyldithiocarbamic acid] | active | retain the cytotoxicity | active | rank of cytotoxicity IC50 among active agents (G401 cells [1]; [9]): highest IC50 value among those compounds that exhibited activity; rank of cytotoxicity IC50 among active agents (SH10TC cells [3]; [9]): highest IC50 value among those compounds that exhibited activity
2 | CCN(CC)C(=S)SSC(=S)N(CC)CC [disulfiram, Disulfiram] | active | – | active | disulfiram cytotoxicity (linear AUC) versus chromosome 16q status ([4]; Mann-Whitney U test, cell lines binned as 16q loss, normal, gain, 480 cell lines): strongly correlated with 16q loss
3 | CN(NC(=O)CC(=O)NN(C)C(=S)c1ccccc1)C(=S)c1ccccc1 [elesclomol, Elesclomol] | active | – | active | effect of MTF1 knockout on sensitivity of SF295 cells (SF295 cells): sensitized; progression-free survival (metastatic melanoma; phase III study, combined with paclitaxel, halted in 2013): did not significantly increase progression-free survival; progression-free survival (metastatic melanoma; small randomized phase II study, given in addition to paclitaxel): significantly increase progression-free survival; cell killing profile [4]: shared cell killing profile specific for cancer cell lines having 16q loss
4 | CCN(CC)C(=S)SC [methyl DDC, Methyl diethyldithiocarbamate] | inactive | not observed to be cytotoxic | inactive | –
5 | CC(=O)O[C@H]1C(=O)[C@@]2(C)[C@H]([C@H](OC(=O)c3ccccc3)[C@]3(O)C[C@H](OC(=O)[C@H](O)[C@@H](NC(=O)c4ccccc4)c4ccccc4)C(C)=C1C3(C)C)[C@]1(OC(C)=O)CO[C@@H]1C[C@@H]2O [paclitaxel] | active | – | active | rank of cytotoxicity IC50 among active agents (SH10TC cells [5]): lowest IC50 value; rank of cytotoxicity IC50 among active agents (G401 cells [6]): lowest IC50 value
6 | CN(C)C(=S)SSC(=S)N(C)C [thiram, Thiram] | active | – | active | toxicity ([7]; by ingestion): moderately toxic; toxicity ([7]; if inhaled): highly toxic; solubility [8]: dissolve completely; cell killing profile [4]: shared cell killing profile specific for cancer cell lines having 16q loss
7 | copper(II) diethyldithiocarbamate [Cu-DDC] | – | retain the cytotoxicity | – | –

Reference: patent US12435377B2, “Cancers with loss of chromosome 16Q and/or low expression of metallothionein proteins” (THE BROAD INSTITUTE, INC., priority 2018, dated 2025)
